Test [1] has as its target ligand binding domain of human FXR (Homo sapiens (Human), UniProt Q96RI1). The test can be described thus: FXR ligand binding assay (LanthaScreen TR-FRET, SRC2-2 peptide recruitment). The conditions noted are these: for pEC50: -log EC50, concentration required to produce 50% activation; for Emax: read-out: % Efficacy. For orientation: In TR-FRET formats the signal depends on donor and acceptor labels being close together.

Test [2] addresses human Farnesoid X receptor ligand-binding domain/Gal4 DNA binding domain chimera (Homo sapiens (Human), UniProt Q96RI1). The test can be described thus: Cell-based assay of FXR activation (FXR-UAS-bla HEK 293T beta-lactamase reporter). The conditions noted are these: cellular FXR beta-lactamase reporter assay; for Emax: HEK-293T, extent of activation relative to GW4064, read-out: % Efficacy; for EC50: FXR-UAS-bla HEK 293T cells, 16 h, pEC50 = -log EC50. Put shortly: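 HEK 293T cells stably expressing a Gal4-fused human FXR LBD and a UAS-driven beta-lactamase reporter were incubated with serially diluted compounds for 16 h at 37 °C in phenol red-free DMEM with 2% charcoal-stripped FBS. CCF4 FRET read-out: excitation 409 nm, emission 447 nm. pEC50 comes from a 3-parameter logistic fit, and efficacy is given as % of GW4064.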
For orientation: In a reporter assay the amount or activity of a reporter protein is the signal.

The mark [3] stands for this setting: extent of activation relative to GW4064.

SMILES strings stand for the structures. Where two headings read alike, the source gives them in different places.

We go through 19 compounds from US10793568B2, “Hormone receptor modulators for treating metabolic conditions and disorders” (ARDELYX, INC., priority 2016, dated 2020).

Chain of ligand binding domain of human FXR (Q96RI1 262-486): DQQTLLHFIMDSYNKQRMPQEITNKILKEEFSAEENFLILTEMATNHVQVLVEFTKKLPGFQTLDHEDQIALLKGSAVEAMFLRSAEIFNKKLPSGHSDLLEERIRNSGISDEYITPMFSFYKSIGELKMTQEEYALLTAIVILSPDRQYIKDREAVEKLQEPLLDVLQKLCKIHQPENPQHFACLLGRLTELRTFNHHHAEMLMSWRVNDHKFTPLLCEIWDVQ
Chain of human Farnesoid X receptor ligand-binding domain/Gal4 DNA binding domain chimera (Q96RI1 262-486, change not shown): as the sequence (Q96RI1 262-486) above
Chain of human Farnesoid X receptor ligand-binding domain/Gal4 DNA binding domain chimera (P04386 1-147 partner): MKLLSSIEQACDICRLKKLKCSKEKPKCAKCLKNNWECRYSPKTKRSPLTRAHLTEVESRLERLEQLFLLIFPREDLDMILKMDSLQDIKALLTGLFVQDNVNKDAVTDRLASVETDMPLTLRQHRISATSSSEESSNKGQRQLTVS

In general, pEC50 refers to the negative decadic logarithm of the EC50, by convention in mol/L. For orientation: EC50 means the midpoint of the concentration-response curve. A higher EC50 goes with a need for much substance. Consider `Cc1cccc(Cl)c1-c1noc(C2(F)CC2)c1CO[C@@H]1C[C@@H]2C[C@H]1CN2c1ccc(C(=O)O)c(F)c1` [Compound I-124, 4-[(1S,4S,5R)-5-{[3-(2-chloro-6-methylphenyl)-5-(1-fluorocyclopropyl)-1,2-oxazol-4-yl]methoxy}-2-azabicyclo[2.2.1]heptan-2-yl]-2-fluorobenzoic Acid], for which, in test [1], the pEC50 was found to be 9.7 and the Emax was 143%. Besides, in test [2], the Emax was 105% and a half-maximal effect (EC50) was put at 3.98 nM.
As for `O=C(O)c1cc(OC2CC2)c2nc(N3C[C@@H]4C[C@H]3C[C@H]4OCc3c(C4CCC5(CC4)CC5)noc3C3CC3)sc2c1` [Compound I-278, 4-cyclopropoxy-2-((1S,4S,5R)-5-((5-cyclopropyl-3-(spiro[2.5]octan-6-yl)isoxazol-4-yl)methoxy)-2-azabicyclo[2.2.1]heptan-2-yl)benzo[d]thiazole-6-carboxylic acid], the pEC50 in test [1] is listed as 7.7. Also, the Emax in test [1] (setting [3]) is 96%; in test [2], 98%. For the same compound, a half-maximal response in test [2] (EC50) required 10 nM.
In test [1], `O=C(O)c1cc(C2CCCC2)c2nc(N3C[C@@H]4C[C@H]3C[C@H]4OCc3c(-c4c(Cl)cccc4Cl)noc3C3CC3)sc2c1` [Compound I-250, 4-cyclopentyl-2-[(1S,4S,5R)-5-{[5-cyclopropyl-3-(2,6-dichlorophenyl)-1,2-oxazol-4-yl]methoxy}-2-azabicyclo[2.2.1]heptan-2-yl]-1,3-benzothiazole-6-carboxylic Acid] came in with a pEC50 of 7.8. For the same compound, the Emax in test [1] (setting [3]) is 128%. In test [2], the Emax came to 114% and the EC50 was 0.501 nM.
As for `O=C(NS(=O)(=O)CCOC(=O)C1CC1)c1ccc(N2C[C@@H]3C[C@H]2C[C@H]3OCc2c(-c3c(Cl)cccc3Cl)noc2C2CC2)cc1` [Compound I-212, 2-[({4-[(1S,4S,5R)-5-{[5-cyclopropyl-3-(2,6-dichlorophenyl)-1,2-oxazol-4-yl]methoxy}-2-azabicyclo[2.2.1]heptan-2-yl]phenyl}formamido)sulfonyl]ethyl Cyclopropanecarboxylate], the pEC50 in test [1] turned out to be 9.2. Besides, the Emax in test [1] (setting [3]) was determined as 136%. In test [2], the Emax was determined as 107% and a half-maximal response (EC50) required 2.51 nM.
On to `O=C(NS(=O)(=O)CC1CCOCC1)c1ccc(N2C(=O)[C@@H]3C[C@H]2C[C@H]3OCc2c(-c3c(Cl)cccc3Cl)noc2C2CC2)cc1` [Compound I-339, 4-((1S,4R,5R)-5-((5-cyclopropyl-3-(2,6-dichlorophenyl)isoxazol-4-yl)methoxy)-3-oxo-2-azabicyclo[2.2.1]heptan-2-yl)-N-(((tetrahydro-2H-pyran-4-yl)methyl)sulfonyl)benzamide], for which, in test [1], the pEC50 is on record as 8.6. The Emax in test [1] (setting [3]) was 198%. In test [2], the Emax is 118% and the EC50 was 5.01 nM.
`O=C1NCCc2cc(N3C[C@@H]4C[C@H]3C[C@H]4OCc3c(-c4c(Cl)cccc4Cl)noc3C3CC3)ccc21` [Compound I-136, 6-[(1S,4S,5R)-5-{[5-cyclopropyl-3-(2,6-dichlorophenyl)-1,2-oxazol-4-yl]methoxy}-2-azabicyclo[2.2.1]heptan-2-yl]-1,2,3,4-tetrahydroisoquinolin-1-one]: in test [1], the pEC50 is reported as 9 and the Emax was found to be 154%. Also, in test [2], the Emax was 114% and the EC50 is 3.98 nM.
As to `O=C(O[C@@H]1C[C@@H]2C[C@H]1CN2c1ccc(-c2nn[nH]n2)cc1)c1c(-c2c(Cl)cccc2Cl)noc1C1CC1` [Compound I-50, (1S,4S,5R)-2-[4-(2H-1,2,3,4-tetrazol-5-yl)phenyl]-2-azabicyclo[2.2.1]heptan-5-yl 5-cyclopropyl-3-(2,6-dichlorophenyl)-1,2-oxazole-4-carboxylate], the pEC50 in test [1] is 6.8. In test [1] (setting [3]), the Emax was 184%. Moreover, in test [2], the Emax was determined as 109% and the EC50 is 15.8 nM.
On to `O=C(O)c1cc(F)c2nc(N3C[C@@H]4C[C@H]3C[C@H]4OCc3c(-c4ccc(O)cc4)noc3C3CC3)sc2c1` [Compound I-293, 2-((1S,4S,5R)-5-((5-cyclopropyl-3-(4-hydroxyphenyl)isoxazol-4-yl)methoxy)-2-azabicyclo[2.2.1]heptan-2-yl)-4-fluorobenzo[d]thiazole-6-carboxylic acid], for which the pEC50 in test [1] is recorded as more than 4.5. In test [2], this compound had an EC50 of less than 31.6 nM.
`O=C(CCc1ccc(N2C[C@@H]3C[C@H]2C[C@H]3OCc2c(-c3c(Cl)cccc3Cl)noc2C2CC2)c(F)c1)NS(=O)(=O)C1CC1` [Compound I-237, 3-(4-((1S,4S,5R)-5-((5-cyclopropyl-3-(2,6-dichlorophenyl)isoxazol-4-yl)methoxy)-2-azabicyclo[2.2.1]heptan-2-yl)-3-fluorophenyl)-N-(cyclopropylsulfonyl)propanamide]: the pEC50 in test [1] is on record as 8.7. Moreover, the Emax in test [1] (setting [3]) was determined as 162%. Besides, in test [2], the Emax came out at 94% and the midpoint of the response, the EC50, lay at 2.51 nM.
Consider `O=P(O)(O)CCc1ccc(N2C[C@@H]3C[C@H]2C[C@H]3OCc2c(-c3c(Cl)cccc3Cl)noc2C2CC2)cc1` [Compound I-175, (2-{4-[(1S,4S,5R)-5-{[5-cyclopropyl-3-(2,6-dichlorophenyl)-1,2-oxazol-4-yl]methoxy}-2-azabicyclo[2.2.1]heptan-2-yl]phenyl}ethyl)phosphonic Acid], for which, in test [1], the pEC50 turned out to be 8.2 and the Emax came out at 120%. In test [2], the Emax amounted to 101% and a half-maximal response (EC50) required 631 nM.
In turn, `O=C(NS(=O)(=O)C1CC1)c1cnc(N2C[C@@H]3C[C@H]2C[C@H]3OCc2c(-c3c(Cl)cccc3Cl)noc2C2CC2)c(F)c1` [Compound I-207, 6-((1S,4S,5R)-5-((5-cyclopropyl-3-(2,6-dichlorophenyl)isoxazol-4-yl)methoxy)-2-azabicyclo[2.2.1]heptan-2-yl)-N-(cyclopropylsulfonyl)-5-fluoronicotinamide] gave a pEC50 in test [1] of 8.6. Also, the Emax in test [1] (setting [3]) turned out to be 152%; in test [2], 104%. In addition, in test [2], the EC50 is 3.98 nM.
Regarding `O=C(O)c1cc(F)c(N2C[C@@H]3C[C@H]2C[C@H]3OCc2c(-c3c(Cl)cccc3Cl)noc2C2CC2)cc1F` [Compound I-105, 4-[(1S,4S,5R)-5-{[5-cyclopropyl-3-(2,6-dichlorophenyl)-1,2-oxazol-4-yl]methoxy}-2-azabicyclo[2.2.1]heptan-2-yl]-2,5-difluorobenzoic Acid], the pEC50 in test [1] was determined as 9.4. The figures for the Emax in test [1] (setting [3]) and in test [2] were 142% and 112%, respectively. In test [2], this compound gave an EC50 of 1.26 nM.
`O=C(NS(=O)(=O)C1CC1)c1ccc(N2C[C@H]3C[C@@H]2C[C@@H]3OCc2c(-c3c(Cl)cccc3Cl)noc2C2CC2)cc1` [Compound I-232, 4-((1R,4R,5S)-5-((5-cyclopropyl-3-(2,6-dichlorophenyl)isoxazol-4-yl)methoxy)-2-azabicyclo[2.2.1]heptan-2-yl)-N-(cyclopropylsulfonyl)benzamide] had a pEC50 in test [1] of 8.1. Moreover, the Emax in test [1] (setting [3]) stood at 126%. In test [2], the Emax turned out to be 93% and the EC50 is 25.1 nM.
In the case of `O=C(O)c1ccc(N2C[C@@H]3C[C@H]2C[C@H]3OCc2c(-c3c(Cl)cccc3Cl)noc2C2CC2)nc1` [Compound I-55, 6-[(1S,4S,5R)-5-{[5-cyclopropyl-3-(2,6-dichlorophenyl)-1,2-oxazol-4-yl]methoxy}-2-azabicyclo[2.2.1]heptan-2-yl]pyridine-3-carboxylic Acid], the pEC50 in test [1] came out at 7.9. For the same compound, the Emax amounted to 121% in test [1] (setting [3]) and 104% in test [2]. Moreover, the EC50 in test [2] is 3.16 nM.
In the same order, the values of `O=C(O)c1cc(C2CCOCC2)c2nc(N3C[C@@H]4C[C@H]3C[C@H]4OCc3c(C4CCC5(CC4)CC5)noc3C3CC3)sc2c1` [Compound I-279] are 7.2, 112%, 104% and 39.8 nM.
On to `CC(CC(=O)O)c1ccc(N2C[C@@H]3C[C@H]2C[C@H]3OCc2c(-c3c(Cl)cccc3Cl)noc2C2CC2)c(F)c1` (stereo partly drawn) [Compound I-152, 3-{4-[(1S,4S,5R)-5-{[5-cyclopropyl-3-(2,6-dichlorophenyl)-1,2-oxazol-4-yl]methoxy}-2-azabicyclo[2.2.1]heptan-2-yl]-3-fluorophenyl}butanoic Acid], for which the Emax in test [1] (setting [3]) came out at 132%; in test [2] it was 105%. For the same compound, the EC50 in test [2] was 5.01 nM.
Consider `CS(=O)(=O)NC(=O)c1ccc(N2C[C@@H]3C[C@H]2C[C@H]3OC(=O)c2c(-c3c(Cl)cccc3Cl)noc2C2CC2)cc1` [Compound I-45, (1S,4S,5R)-2-[4-(methanesulfonylcarbamoyl)phenyl]-2-azabicyclo[2.2.1]heptan-5-yl 5-cyclopropyl-3-(2,6-dichlorophenyl)-1,2-oxazole-4-carboxylate], for which the pEC50 in test [1] turned out to be 7.5. Moreover, the Emax in test [1] (setting [3]) amounted to 152%; in test [2], 107%. In addition, the EC50 in test [2] was 25.1 nM.
In turn, `O=C(O)c1cc(F)c2nc(N3C[C@@H]4C[C@H](OC(=O)c5c(-c6c(Cl)cccc6Cl)noc5C5CC5)[C@H]3C4)sc2c1` [Compound I-64, 2-[(1R,4S,6S)-6-[5-cyclopropyl-3-(2,6-dichlorophenyl)-1,2-oxazole-4-carbonyloxy]-2-azabicyclo[2.2.1]heptan-2-yl]-4-fluoro-1,3-benzothiazole-6-carboxylic Acid] displayed a pEC50 in test [1] of more than 4.5. Also, in test [2], the Emax is 55% and the EC50 was 501 nM.
For `O=C(O)c1cc(OC(F)(F)F)c2nc(N3C[C@@H]4C[C@H]3C[C@H]4OCc3c(-c4c(Cl)cccc4Cl)noc3C3CC3)sc2c1` [Compound I-16], in test [1], the negative-log EC50 (pEC50) was 8.8. Also, the Emax in test [1] (setting [3]) is 174%; in test [2], 109%. Moreover, in test [2], the EC50 is 0.0398 nM.
